How the values were obtained:
[1] = system: subjects with moderate to severe drug-induced tardive dyskinesia (TD); test: Open-label, single-arm long-term study in tardive dyskinesia; type: in vivo, human; conditions: by Week 6
Procedure: An open-label, single-arm study in which male and female subjects with moderate to severe drug-induced tardive dyskinesia (TD) was conducted to evaluate the safety and tolerability of long-term maintenance therapy with deutetrabenazine, and to evaluate the efficacy of long-term maintenance therapy of deutetrabenazine to reduce the severity of abnormal involuntary movements of TD. Study Design. […] Dose Regimen. Deutetrabenazine tablets were provided in dosage strengths of 6, 9, 12, 15, and 18 mg. During dose adjustment/titration, deutetrabenazine was supplied in weekly blister cards. During long-term treatment, deutetrabenazine will be supplied in 30-count bottles. Study drug were administered as follows. All treatment regimens were administered twice daily (BID) with meals, approximately 10 hours apart during the day. […] If a subject experienced a clinically significant AE attributable to deutetrabenazine, the Investigator determined if a dose reduction or suspension was necessary. […] During titration, the investigator, in consultation with the subject determined when an adequate level of dyskinesia control had been achieved. […] If a subject experienced a clinically significant AE attributable to deutetrabenazine, the investigator determined if a dose reduction or suspension was necessary. […]

[2] = system: patients with moderate to severe tardive dyskinesia; test: ARM-TD randomized, double-blind, placebo-controlled study; type: in vivo, human
Source text: An additional clinical study, Aim to Reduce Movements in […] Dyskinesia (ARM-TD) was designed and conducted to evaluate the efficacy of SD-809 (deutetrabenazine) in the treatment of moderate to severe tardive dyskinesia. […] Subjects were screened for inclusion in the study as follows. Inclusion criteria included: between 18 and 75 years of age, inclusive; history of using a dopamine receptor antagonist for at least 3 months (or 1 month in subjects 60 years of age and older); clinical diagnosis of TD, and has had symptoms for at least 3 months prior to Screening; […] Dosing. […] Drug was then administered at that dose for another six weeks for a total treatment of 12 weeks, followed by a 1-week washout period. […] Dose suspensions of up to one week were permitted if the subject experienced a clinically significant adverse event. Study Objectives and Endpoints. The objectives of the study was to evaluate the efficacy of SD-809 in reducing the severity of abnormal involuntary movements associated with tardive dyskinesia and the safety and tolerability of titration and maintenance therapy with deutetrabenazine in subjects with drug-induced tardive dyskinesia. […] Baseline AIMS score is defined for each subject as the Day 0 assessment. The AIMS is composed of 12 clinician-administered and scored items. Items 1-10 are rated on a 5-point, anchored scale and consist of the following: • Items 1-4 assess orofacial movements; • Items 5-7 deal with extremity and truncal dyskinesia; • Items 8-10 deal with global severity as judged by the examiner, and the patient's awareness of the movements and the distress associated with them; and • Items 11-12 are yes/no questions concerning problems associated with teeth and/or dentures, as such problems can be mistaken for dyskinesia. […] As with previous studies, […] treatment success may be defined as Much or Very Much Improved on a 7-point Likert Scale, ranging from very much worse to very much improved at Week 12. The CDQ-24 is a disease-specific quality of life questionnaire developed for use in patients with craniocervical dystonia, including both cervical dystonia (CD) and blepharospasm (BPS). The CDQ-24 was selected for use in the present study because it includes domains which are relevant not only to CD and BPS, but to TD, such as stigma, emotional well-being, pain, activities of daily living, and social/family life. For the present study, the CDQ-24 has been modified such that the questions focus more directly on the impact of TD (as opposed to CD/BPS) on quality of life. […] Measurements and Statistics. Digital video recordings of AIMS assessments made at all clinic visits (at Screening, Baseline, Weeks 2, 4, 6, 9, and 12) were rated by pairs of central raters who were experts in movement disorders and were blinded to treatment arm, sequence of video, and the investigator AIMS score. Analysis was carried out using a linear mixed model for repeated measurements (MMRM) with the change in the AIMS score as the dependent variable. The model included fixed effects for treatment group, time point (five levels: Weeks 2, 4, 6, 9, and 12), the treatment group by time point interaction, and the randomization stratification variable. The unstructured covariance model was used and the primary analysis compared the deutetrabenazine and placebo groups at Week 12 using a two-sided test at the 5% level of significance.

[3] = n = 58, count (percent), listed as DTBZ

**Q.** [2H]C([2H])([2H])Oc1cc2c(cc1OC([2H])([2H])[2H])C1CC(=O)C(CC(C)C)CN1CC2 (stereo not drawn) [deutetrabenazine, (RR, SS)-1,3,4,6,7,11b-hexahydro-9,10-di(methoxy-d3)-3-(2-methylpropyl)-2H-benzo[a]quinolizin-2-one] was tested. Which “subjects much or very much improved according to PGIC and CGIC” value [1] did it give?
**A.** The value was “over 50%”.

**Q.** And the “CGIC Treatment Success, Treatment Difference” value ([2]; DTBZ vs Placebo)?
**A.** Its value is 7.90%.

**Q.** And the “Change from baseline mCDQ-24, Treatment Difference” value ([2]; DTBZ vs Placebo)?
**A.** The value was −2.7.

**Q.** What about the “PGIC Treatment Success, Treatment Difference” value ([2]; DTBZ vs Placebo) of the same molecule?
**A.** The value was 13.00%.

**Q.** What about the “AIMS Change (LS Mean), Treatment Difference” value ([2]; DTBZ vs Placebo, p-value 0.0188) of the same molecule?
**A.** Its value is −1.4.

**Q.** And the “Change from baseline mCDQ-24” value ([2]; N = 56)?
**A.** The value was −11.1.

**Q.** What about the “CGIC Treatment Success (%)” value ([2]; Week 12, N = 56) of the same molecule?
**A.** The value was 48.20%.

**Q.** What about the “PGIC Treatment Success N (%)” value ([2]; Week 12, N = 56) of the same molecule?
**A.** Its value is 42.90%.

**Q.** And the “AIMS Change (LS Mean)” value ([2]; baseline to Week 12, N = 56)?
**A.** Its value is −3.

**Q.** And the “improvement on the AIMS score” value ([2]; baseline to end of therapy)?
**A.** The value was 3.0 points.

**Q.** And the Depression/depressed mood reported ([2]; in vivo)?
**A.** Its Depression/depressed mood reported is “one patient”.

**Q.** And the suicidal ideation reported ([2]; in vivo)?
**A.** The suicidal ideation reported was “none”.

**Q.** What about the “Any TEAEs (Treatment-Emergent Adverse Events)” value ([2]; n = 58, count (percent)) of the same molecule?
**A.** The value was 41 (70.7%).

**Q.** And the “TEAE Anxiety” value ([2]; n = 58, count (percent))?
**A.** The value was 3 (5.2%).

**Q.** And the “TEAE Chest pain” value ([2]; n = 58, count (percent))?
**A.** The value was 1 (1.7%).

**Q.** And the “TEAE Constipation” value ([2]; n = 58, count (percent))?
**A.** The value was 2 (3.4%).

**Q.** And the “TEAE Diarrhea” value ([2]; n = 58, count (percent))?
**A.** Its value is 3 (5.2%).

**Q.** And the “TEAE Dizziness” value ([2]; n = 58, count (percent))?
**A.** The value was 2 (3.4%).

**Q.** And the “TEAE Dry mouth” value ([2]; n = 58, count (percent))?
**A.** The value was 2 (3.4%).

**Q.** And the “TEAE Fatigue” value ([2]; n = 58, count (percent))?
**A.** Its value is 4 (6.9%).

**Q.** What about the “TEAE Headache” value ([2]; n = 58, count (percent)) of the same molecule?
**A.** The value was 4 (6.9%).

**Q.** And the “TEAE Nasopharyngitis” value ([2]; n = 58, count (percent))?
**A.** Its value is 2 (3.4%).

**Q.** And the “TEAE Nausea” value ([2]; n = 58, count (percent))?
**A.** Its value is 2 (3.4%).

**Q.** What about the “TEAE Pneumonia” value ([2]; n = 58, count (percent)) of the same molecule?
**A.** Its value is 1 (1.7%).

**Q.** What about the “TEAE Upper respiratory tract infection” value ([2]; n = 58, count (percent)) of the same molecule?
**A.** Its value is 2 (3.4%).

**Q.** And the “TEAE Vomiting” value ([2]; n = 58, count (percent))?
**A.** The value was 1 (1.7%).

**Q.** And the “Serious TEAEs” value [2, 3]?
**A.** The value was 4 (6.9%).

**Q.** And the “TEAE Akathisia” value [2, 3]?
**A.** Its value is 3 (5.2%).

**Q.** What about the “TEAE Insomnia” value [2, 3] of the same molecule?
**A.** The value was 4 (6.9%).

**Q.** And the “TEAE Somnolence/sedation” value [2, 3]?
**A.** Its value is 9 (15.5%).

**Q.** And the “TEAEs Resulting in Study Withdrawal” value [2, 3]?
**A.** Its value is 1 (1.7%).

Source: patent US12016858B2, “Methods for the treatment of abnormal involuntary movement disorders” (AUSPEX PHARMACEUTICALS, INC., priority 2015, dated 2024)
